Experimental findings from US20120100990A1, “4 -AMINOPICOLINATES AND THEIR USE AS HERBICIDES” (SYNGENTA CROP PROTECTION LLC, priority 2009, published 2012) are described below.

Type in all cases: in vivo
The subject of assay [1] is Solanum nigrum (SOLNI). As to the kind of experiment: Pre-emergence biological efficacy, glasshouse pot test. The note with it: 312 h, 1,000 g/ha, evaluated after 13 days, 100=total damage, 0=no damage, read-out: Percentage damage caused to weed species, pre-emergence, SOLNI. In a few lines: (§1)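 Pre-emergence spray, day 1 post-sowing; 1000 or 250 g/ha in acetone/water 50:50 + 0.5% Tween 20. Glasshouse 24/16 °C, 14 h light, 65% RH, watered twice daily. Visual damage score at 13 d, 0–100.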

The test system of assay [2] is Alopecurus myosuroides (ALOMY). Described as above. The settings on record: 312 h, 1,000 g/ha, evaluated after 13 days, 100=total damage, 0=no damage, read-out: Percentage damage caused to weed species, pre-emergence, ALOMY. The gist of the method:
as §1

Assay [3] concerns Setaria faberi (SETFA). Described as above. The settings on record: 312 h, 1,000 g/ha, evaluated after 13 days, 100=total damage, 0=no damage, read-out: Percentage damage caused to weed species, pre-emergence, SETFA. In a few lines: as §1
Assay [4] has as its system Amaranthus retroflexus (AMARE). Described as above. The settings on record: 312 h, 1,000 g/ha, evaluated after 13 days, 100=total damage, 0=no damage, read-out: Percentage damage caused to weed species, pre-emergence, AMARE. In a few lines: as §1
Assay [5] concerns Ipomea hederaceae (IPOHE). Described as above. The settings on record: Ipomoea hederacea, 312 h, 1,000 g/ha, evaluated after 13 days, 100=total damage, 0=no damage, read-out: Percentage damage caused to weed species, pre-emergence, IPOHE. In a few lines: as §1
Assay [6] deals with Echinochloa crus-galli (ECHCG). The description is as above. The settings on record: 312 h, 1,000 g/ha, evaluated after 13 days, 100=total damage, 0=no damage, read-out: Percentage damage caused to weed species, pre-emergence, ECHCG. The gist of the method: as §1
The test system of assay [7] is Solanum nigrum (SOLNI). As to the kind of experiment: Post-emergence biological efficacy, glasshouse pot test. The note with it: 312 h, 1,000 g/ha, evaluated after 13 days, 100=total damage, 0=no damage, read-out: Percentage damage caused to weed species, post-emergence, SOLNI. The gist of the method: (§2)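 Post-emergence spray, 1000 or 250 g/ha, acetone/water 50:50 + 0.5% Tween 20; plants 8 d old from sowing; glasshouse 24/16 °C, 14 h light, 65% RH, watered twice daily; visual damage 0–100 at 13 d.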

Assay [8] relates to Alopecurus myosuroides (ALOMY). The description is as above. The note with it: 312 h, 1,000 g/ha, evaluated after 13 days, 100=total damage, 0=no damage, read-out: Percentage damage caused to weed species, post-emergence, ALOMY. The gist of the method:
as §2

Assay [9] relates to Setaria faberi (SETFA). The description is as above. The note with it: 312 h, 1,000 g/ha, evaluated after 13 days, 100=total damage, 0=no damage, read-out: Percentage damage caused to weed species, post-emergence, SETFA. In a few lines: as §2
The subject of assay [10] is Amaranthus retroflexus (AMARE). Described as above. The note with it: 312 h, 1,000 g/ha, evaluated after 13 days, 100=total damage, 0=no damage, read-out: Percentage damage caused to weed species, post-emergence, AMARE. In a few lines: as §2
Assay [11] concerns Ipomea hederaceae (IPOHE). Described as above. The settings on record: Ipomoea hederacea, 312 h, 1,000 g/ha, evaluated after 13 days, 100=total damage, 0=no damage, read-out: Percentage damage caused to weed species, post-emergence, IPOHE. The gist of the method: as §2
For assay [12], the system named is Echinochloa crus-galli (ECHCG). The description is as above. The settings on record: 312 h, 1,000 g/ha, evaluated after 13 days, 100=total damage, 0=no damage, read-out: Percentage damage caused to weed species, post-emergence, ECHCG. In a few lines:
as §2

The structures appear in SMILES notation.

As for `C=Cc1c(NCc2ncccc2Cl)cc(Cl)nc1C(=O)OC` [Compound 32-12, 6-Chloro-4-[(3-chloro-pyridin-2-ylmethyl)-amino]-3-ethenyl-pyridine-2-carboxylic acid methyl ester], the pest or weed control at 1000 g/ha amounted to 100% with Solanum nigrum (SOLNI) [1]; 70% in assay [2]; 80% in the assay on Setaria faberi (SETFA) [3]; 100% in [4]; 70% in assay [5]; 50% in assay [6]. The pest or weed control at 1000 g/ha in the assay on Solanum nigrum (SOLNI) [7] was 90%; in assay [8], 50%; in the assay on Setaria faberi (SETFA) [9] it was 60%; in assay [10], 100%; in assay [11], 50%; in [12], 40%.

As for `COC(=O)c1nc(Cl)c(Cl)c(NCc2ccccc2[N+](=O)[O-])c1Br` [Compound 15-41, 3-bromo-5,6-dichloro-4-[(2-nitrophenyl-methyl)-amino]-pyridine-2-carboxylic acid methyl ester], the pest or weed control at 1000 g/ha with Solanum nigrum (SOLNI) [1] was 80%; in assay [2], 20%; in the assay with Setaria faberi (SETFA) [3], 30%; in assay [4], 100%; in assay [5], 100%; in assay [6], 40%. In addition, the pest or weed control at 1000 g/ha worked out at 100% in the assay on Solanum nigrum (SOLNI) [7]; 10% in [8]; 70% in the assay with Setaria faberi (SETFA) [9]; 100% in assay [10]; 80% in assay [11]; 0% in assay [12].

Turning to `COC(=O)c1nc(Cl)cc(NCc2ccccc2OC)c1Cl` [Compound 73-2, 3,6-Dichloro-4-[(2-methoxyphenyl-methyl)-amino]-pyridine-2-carboxylic acid methyl ester], the pest or weed control at 1000 g/ha in the assay on Solanum nigrum (SOLNI) [1] stood at 100%; in assay [2], 50%; in the assay with Setaria faberi (SETFA) [3] it was 80%; in assay [4], 100%; in assay [5], 100%; in assay [6], 20%. For the same molecule, the pest or weed control at 1000 g/ha in the assay on Solanum nigrum (SOLNI) [7] is 90%; in [8], 40%; with Setaria faberi (SETFA) [9] it was 80%; in [10], 100%; in assay [11] it was 70%; in [12] it was 40%.

With `C=Cc1c(NCC2CCCCC2)cc(Cl)nc1C(=O)OC` [Compound 67-12, 6-Chloro-4-cyclohexylmeth-ylamino-3-ethenyl-pyridine-2-carboxylic acid methyl ester], the pest or weed control at 1000 g/ha turned out to be 80% in the assay with Solanum nigrum (SOLNI) [1]; 10% in [2]; 0% with Setaria faberi (SETFA) [3]; 100% in assay [4]; 60% in [5]; 10% in [6]. Moreover, the pest or weed control at 1000 g/ha in the assay with Solanum nigrum (SOLNI) [7] came to 80%; in [8], 10%; in the assay on Setaria faberi (SETFA) [9], 20%; in [10], 90%; in assay [11], 60%; in assay [12] it was 20%.

Consider `COC(=O)c1nc(Cl)cc(NCc2cc(C)nn2C)c1Cl` [Compound 77-2, 3,6-Dichloro-4-[(1,3-dimethylpyrazol-5-ylmethyl)-amino]-pyridine-2-carboxylic acid methyl ester], for which the pest or weed control at 1000 g/ha stood at 100% in the assay on Solanum nigrum (SOLNI) [1]; 60% in assay [2]; 70% in the assay on Setaria faberi (SETFA) [3]; 100% in assay [4]; 90% in assay [5]; 20% in [6]. For the same molecule, the pest or weed control at 1000 g/ha in the assay with Solanum nigrum (SOLNI) [7] came to 100%; in assay [8], 50%; with Setaria faberi (SETFA) [9], 80%; in assay [10], 100%; in assay [11] it was 80%; in assay [12], 30%.

Turning to `COC(=O)c1nc(Cl)c(F)c(NCc2ccccc2[N+](=O)[O-])c1Br` [Compound 15-29, 3-bromo-6-chloro-5-fluoro-4-[(2-nitrophenyl-methyl)-amino]-pyridine-2-carboxylic acid methyl ester], the pest or weed control at 1000 g/ha with Solanum nigrum (SOLNI) [1] was 90%; in assay [2], 90%; with Setaria faberi (SETFA) [3], 40%; in assay [4], 90%; in assay [5], 100%; in [6], 70%. Further, the pest or weed control at 1000 g/ha with Solanum nigrum (SOLNI) [7] turned out to be 100%; in [8] it was 50%; with Setaria faberi (SETFA) [9], 80%; in assay [10], 100%; in assay [11] it was 70%; in assay [12], 50%.

In the case of `C=Cc1c(NCc2ccc(N(C)C)cc2)cc(Cl)nc1C(=O)OC` [Compound 14-12, 6-Chloro-4-[(4-dimethylamino-phenylmethyl)-amino]-3-ethenyl-pyridine-2-carboxylic acid methyl ester], the pest or weed control at 1000 g/ha in the assay with Solanum nigrum (SOLNI) [1] was determined as 100%; in assay [2] it was 80%; with Setaria faberi (SETFA) [3], 80%; in [4] it was 100%; in [5], 100%; in [6], 30%. Moreover, the pest or weed control at 1000 g/ha was 90% in the assay on Solanum nigrum (SOLNI) [7]; 60% in assay [8]; 80% in the assay with Setaria faberi (SETFA) [9]; 100% in assay [10]; 50% in [11]; 50% in assay [12].

As for `C=Cc1c(NCc2ccccc2C(F)(F)F)cc(Cl)nc1C(=O)OC` [Compound 74-12, 6-Chloro-3-ethenyl-4-[(2-trifluoromethyl-phenylmethyl)-amino]-pyridine-2-carboxylic acid methyl ester], the pest or weed control at 1000 g/ha (in the assay on Solanum nigrum (SOLNI) [1]; in assay [2]; in the assay on Setaria faberi (SETFA) [3]; in [4]; in assay [5]; in [6]) was 0% throughout. The pest or weed control at 1000 g/ha with Solanum nigrum (SOLNI) [7] amounted to 70%; in [8], 10%; in the assay on Setaria faberi (SETFA) [9], 10%; in assay [10] it was 100%; in assay [11], 10%; in assay [12], 20%.

With `COC(=O)c1nc(Cl)c(Cl)c(NCc2ccccc2[N+](=O)[O-])c1C(F)(F)F` [Compound 15-444, 5,6-dichloro-4-[(2-nitrophenyl-methyl)-amino]-3-trifluoromethyl-pyridine-2-carboxylic acid methyl ester], the pest or weed control at 1000 g/ha with Solanum nigrum (SOLNI) [1] was determined as 30%; in assay [2], 0%; with Setaria faberi (SETFA) [3], 0%; in assay [4], 30%; in assay [5] it was 50%; in [6] it was 0%. Further, the pest or weed control at 1000 g/ha in the assay with Solanum nigrum (SOLNI) [7] is 90%; in [8], 10%; with Setaria faberi (SETFA) [9], 40%; in assay [10] it was 100%; in [11], 50%; in assay [12] it was 50%.
